Results reported in patent US6825230B2, “Spiro and dispiro 1,2,4-trixolane antimalarials” (Medicines for Malaria Venture MMV, priority 2002, dated 2004).
≈ marks a conversion by molar mass, not a printed value. Like-named read-outs stand apart in the source and are kept apart here.

Experiments:
[1] = test system: chloroquine-resistant K1 strain of P. falciparum; assay: In vitro antimalarial semiautomated microdilution assay ([3H]-hypoxanthine incorporation), K1 strain; assay type: cell-based, Plasmodium falciparum; settings: Plasmodium falciparum
Protocol: (§1) Various OZ compounds were tested by the semiautomated microdilution assay against intraerythrocytic forms of Plasmodium falciparum derived from asynchronous stock cultures.
(§2) Fifty percent inhibitory concentration (IC50) were estimated by Logit regression analysis.

[2] = test system: chloroquine-sensitive NF54 strain of P. falciparum; assay: In vitro antimalarial semiautomated microdilution assay ([3H]-hypoxanthine incorporation), NF54 strain; assay type: cell-based, Plasmodium falciparum; settings: Plasmodium falciparum
Protocol: as §1, §2

[3] = test system: ANKA strain of P. berghei; assay: Single dose STI in vivo screen in infected mice; set-up: species or system Plasmodium berghei; settings: for Survival (days) 10 mg/kg po: single 10 mg/kg po in 3% ethanol and 7% Tween 80; for Survival (days) 10 mg/kg po / Survival (days) 10 mg/kg SSV po / Survival (days) 10 mg/kg sc: untreated 6-7 days; for Activity (%) 10 mg/kg po: single 10 mg/kg po in 3% ethanol and 7% Tween 80 on day 1 post-infection; for Activity (%) 10 mg/kg po / Activity (%) 10 mg/kg SSV po / Activity (%) 10 mg/kg sc / Activity (%) 3 mg/kg SSV po: percent reduction in parasitemia on day 3; for Survival (days) 10 mg/kg SSV po: single 10 mg/kg po in SSV; for Activity (%) 10 mg/kg SSV po: single 10 mg/kg po in standard suspending vehicle (SSV) on day 1 post-infection; for Survival (days) 10 mg/kg sc: single 10 mg/kg sc in 3% ethanol and 7% Tween 80; for Activity (%) 10 mg/kg sc: single 10 mg/kg sc in 3% ethanol and 7% Tween 80 on day 1 post-infection; for Survival (days) 3 mg/kg SSV po / Activity (%) 3 mg/kg SSV po: single 3 mg/kg po in SSV
[4] = K1, 72 h, read-out: IC50 (ng/ml) K1, chloroquine-resistant K1 strain, 72 h incubation
[5] = NF54, 72 h, read-out: IC50 (ng/ml) NF54, chloroquine-sensitive NF54 strain, 72 h incubation
[6] = chloroquine-resistant K1 strain, 72 h incubation, read-out: IC50 (ng/ml) K1
[7] = chloroquine-sensitive NF54 strain, 72 h incubation, read-out: IC50 (ng/ml) NF54

SMILES	IC50 [1, 4] [ng/mL]	IC50 [2, 5] [ng/mL]	Survival (days) 10 mg/kg po [3]	Activity (%) 10 mg/kg po [3] [%]	Survival (days) 10 mg/kg SSV po [3]	Activity (%) 10 mg/kg SSV po [3] [%]	Survival (days) 10 mg/kg sc [3]	Activity (%) 10 mg/kg sc [3] [%]	IC50 [1, 6] [ng/mL]	IC50 [2, 7] [ng/mL]	Survival (days) 3 mg/kg SSV po [3] [days]	Activity (%) 3 mg/kg SSV po [3] [%]
COC(=O)C1(c2ccccc2)CCC2(CC1)OOC1(O2)C2CC3CC(C2)CC1C3 (stereo not drawn) [OZ98]	2.3 (≈ 5.77 nM)	0.9 (≈ 2.26 nM)	6.3 days	72	5.3 days	11	7.3 days	77				
CN1CCN(C(=O)NC[C@H]2CC[C@]3(CC2)OOC2(O3)C3CC4CC(C3)CC2C4)CC1 (stereo partly drawn) [OZ267]			8.3 days	99.92	8.7 days	99.89	9.3 days	99.97	0.2 (≈ 0.477 nM)	0.34 (≈ 0.81 nM)		
COC(=O)c1ncn(C[C@H]2CC[C@]3(CC2)OOC2(O3)C3CC4CC(C3)CC2C4)n1 (stereo partly drawn) [OZ234]	3 (≈ 7.44 nM)	3.6 (≈ 8.92 nM)	6.0 days	12	6.0 days	0	6.3 days	0				
NCCOc1ccc([C@H]2CC[C@]3(CC2)OO[C@]2(O3)C3CC4CC(C3)CC2C4)cc1 [OZ323]	0.85 (≈ 2.13 nM)	1.1 (≈ 2.75 nM)			15.6 days	99.98					9.2	99.92
O=C1CN(C[C@H]2CC[C@]3(CC2)OOC2(O3)C3CC4CC(C3)CC2C4)CCN1 (stereo partly drawn) [OZ285]					8.7 days	99.81			1.3 (≈ 3.45 nM)	1.8 (≈ 4.78 nM)	7.6	72
O=[N+]([O-])c1ccc(C2(c3ccccc3)OOC3(O2)C2CC4CC(C2)CC3C4)cc1 (stereo not drawn) [OZ95, Adamantane-2-spiro-3′-5′-(4′-nitrophenyl)-5′-phenyl-1′,2′,4′-trioxolane]	2.8 (≈ 7.12 nM)	1.3 (≈ 3.3 nM)	6.0/6.0/6.0 days	31	6.0/6.0/6.0 days	0	6.0/6.0/6.0 days	49				
CC(C)(C)NC(=O)N1CCC2(CC1)OOC1(O2)C2CC3CC(C2)CC1C3 (stereo not drawn) [OZ143, Adamantane-2-spiro-3′-8′-(t-butylaminocarbonyl)-1′,2′,4′-trioxa-8′-azaspiro[4.5]decane]	0.98 (≈ 2.69 nM)	1.8 (≈ 4.94 nM)	6.7 days	48	6.7 days	44	9.7 days	99.85				
OC1(c2nccs2)CCC2(CC1)OOC1(O2)C2CC3CC(C2)CC1C3 (stereo not drawn) [OZ247]			6.3 days	57	6.0 days	27	9.0 days	99.85	1.8 (≈ 4.95 nM)	2.3 (≈ 6.33 nM)		
CCCCCCCCS(=O)(=O)N1CCC2(CC1)OOC1(O2)C2CC3CC(C2)CC1C3 (stereo not drawn) [OZ115, Adamantane-2-spiro-3′-8′-(1′-octanesulfonyl)-1′,2′,4′-trioxa-8′-azaspiro[4.5]decane]	11 (≈ 24.9 nM)	6.9 (≈ 15.6 nM)	6.3 days	33	5.7 days	0	7.3 days	97				
O=C(O)c1cn(C[C@H]2CC[C@]3(CC2)OOC2(O3)C3CC4CC(C3)CC2C4)cn1 (stereo partly drawn) [OZ225]			5.7 days	0	5.7 days	0	6.3 days	17	7.3 (≈ 18.8 nM)	> 10		
O=C(O)c1cccc([C@H]2CC[C@]3(CC2)OOC2(O3)C3CC4CC(C3)CC2C4)c1 (stereo partly drawn) [OZ198]	> 10	> 10	5.7 days	4	6.0 days	6	5.7 days	6				
N=C(N)NN=C1CCC2(CC1)OOC1(O2)C2CC3CC(C2)CC1C3 (stereo not drawn) [OZ172]	3.5 (≈ 10.5 nM)	5 (≈ 15 nM)	8.0 days	68	10.3 days	82	10.3 days	100				
NC(=O)CN(CC(N)=O)C[C@H]1CC[C@]2(CC1)OOC1(O2)C2CC3CC(C2)CC1C3 (stereo partly drawn) [OZ236]	2 (≈ 4.91 nM)	2 (≈ 4.91 nM)	6.3 days	89	7.7 days	86	7.7 days	98.61				
CC1(C)CC(NC2CCC3(CC2)OOC2(O3)C3CC4CC(C3)CC2C4)CC(C)(C)N1 (stereo not drawn) [OZ171]	1.3 (≈ 3.11 nM)	1.4 (≈ 3.34 nM)	9.0 days	98	7.0 days	85	9.7 days	99.94				
O=C(O)CCC(=O)N[C@H]1CC[C@]2(CC1)OOC1(O2)C2CC3CC(C2)CC1C3 (stereo partly drawn) [OZ196]	> 10	> 10	6.0 days	10	5.3 days	0	5.7 days	17				
COC(=O)c1cn(C[C@H]2CC[C@]3(CC2)OOC2(O3)C3CC4CC(C3)CC2C4)cn1 (stereo partly drawn) [OZ224]			6.0 days	0	5.7 days	5	5.7 days	20	2 (≈ 4.97 nM)	3 (≈ 7.45 nM)		
O=C(O)CCC(=O)NC[C@H]1CC[C@]2(CC1)OO[C@]1(O2)C2CC3CC(C2)CC1C3 [OZ300]					6.8 days	6			71 (≈ 180 nM)	97 (≈ 247 nM)	7.0	0
CCCCS(=O)(=O)N1CCC2(CC1)OOC1(O2)C2CC3CC(C2)CC1C3 (stereo not drawn) [OZ92, Adamantane-2-spiro-3′-8′-(1′-butanesulfonyl)-1′,2′,4′-trioxa-8′-azaspiro[4.5]decane]	1.6 (≈ 4.15 nM)	0.4 (≈ 1.04 nM)	6.7 days	81	6.3 days	35	10.0 days	99.98				
